The values below are quoted from earlier work in paper PMC8513935.

Series [1] in a line: experimental, compiled by the authors from the literature (the ESI cites the sources). Particulars: 25 C.
A short description of series [2]: derived by the authors as gas->solvent minus gas->water (a hypothetical dry solvent; the ESI), not a two-phase measurement. Particulars: 25 C.

With `CSC`, the log K of transfer, gas to solvent was 2.04 log10 K in series [1] (Hexadecane), 2.17 log10 K in series [1] (Hexane) and 1.18 log10 K in series [1] (Water).
With `Oc1cccc(F)c1`, the log K of transfer, gas to solvent in series [1] (Hexadecane) was 3.84 log10 K; in series [1] (Water) it was 4.58 log10 K. In addition, in series [2] (Hexadecane), the log K of transfer, water to solvent is -0.738 log10 K.
As for `CCCCCCC(C)C`, the figures for the log K of transfer, gas to solvent in series [1] (Hexadecane) and in series [1] (Water) were 3.96 log10 K and -2.15 log10 K, respectively.
In the case of `Cc1ccnc(C)c1`, the log K of transfer, gas to solvent was 4 log10 K in series [1] (Hexadecane) and 3.57 log10 K in series [1] (Water).
On to `CC1CCCCC1=O` (centres unmarked), for which the results for the log K of transfer, gas to solvent in series [1] (Hexadecane) and in series [1] (Water) were 4.05 log10 K and 3.07 log10 K, respectively.
In the case of `CCSC`, the results for the log K of transfer, gas to solvent in series [1] (Hexadecane) and in series [1] (Water) were 2.37 log10 K and 1.1 log10 K, respectively. Moreover, in series [2] (Hexadecane), the log K of transfer, water to solvent was 1.27 log10 K.
Take `CCCC(C)(C)C`: the log K of transfer, gas to solvent was 2.79 log10 K in series [1] (Hexadecane) and -2.11 log10 K in series [1] (Water).
As for `CCCCCCCCCCCCCCCCCCCCO`, the log K of transfer, gas to solvent in series [1] (Decan-1-ol) was 12 log10 K; in series [1] (Hexadecane), 10.7 log10 K; in series [1] (Hexan-1-ol) it was 12.1 log10 K; in series [1] (Octan-1-ol), 12.1 log10 K; in series [1] (Propan-2-ol), 11.9 log10 K; in series [1] (Water) it was 1.54 log10 K. Moreover, the log K of transfer, water to solvent in series [2] (Decan-1-ol) is 10.5 log10 K; in series [2] (Hexadecane), 9.12 log10 K; in series [2] (Hexan-1-ol), 10.5 log10 K; in series [2] (Octan-1-ol(dry)), 10.5 log10 K; in series [2] (Propan-2-ol), 10.3 log10 K.
As for `CCCCCc1ccccc1`, the log K of transfer, gas to solvent in series [1] (Hexadecane) was 5.23 log10 K; in series [1] (Water), 0.17 log10 K. The log K of transfer, water to solvent in series [2] (Hexadecane) is 5.06 log10 K.
As to `Cc1ccc(C)nc1`, the values for the log K of transfer, gas to solvent in series [1] (Hexadecane) and in series [1] (Water) were 3.98 log10 K and 3.46 log10 K, respectively.
As for `CNC=O`, the log K of transfer, gas to solvent was 2.86 log10 K in series [1] (Hexadecane), 5.39 log10 K in series [1] (Propanone) and 6.57 log10 K in series [1] (Water).
For the compound `CCCCCCCCN`, the log K of transfer, gas to solvent in series [1] (Hexadecane) was 4.6 log10 K; in series [1] (Water) it was 2.68 log10 K.
On to `CN1CCCCC1=O`, for which the log K of transfer, gas to solvent in series [1] (Hexadecane) is 3.97 log10 K; in series [1] (Water), 4.91 log10 K.
In the case of `O=C1CCCCCCC1`, the log K of transfer, gas to solvent is 4.98 log10 K in series [1] (Hexadecane) and 3.38 log10 K in series [1] (Water).
Regarding `CC1CCNCC1`, the log K of transfer, gas to solvent in series [1] (Hexadecane) was 3.23 log10 K; in series [1] (Water), 3.15 log10 K.
`Fc1ccc(Cl)cc1`: the log K of transfer, gas to solvent in series [1] (Hexadecane) was 3.55 log10 K; in series [1] (Water), 0.63 log10 K.
Turning to `CCNC(C)=O`, the results for the log K of transfer, gas to solvent in series [1] (Hexadecane) and in series [1] (Water) were 3.84 log10 K and 6.72 log10 K, respectively.
Turning to `OC1CCCC1`, the log K of transfer, gas to solvent in series [1] (Hexadecane) is 3.24 log10 K; in series [1] (Propanone), 4.6 log10 K; in series [1] (Water), 4.03 log10 K.
As for `CCCCC1CCCCC1`, the log K of transfer, gas to solvent in series [1] (Hexadecane) is 4.8 log10 K; in series [1] (Water), -1.44 log10 K.
With `CCCCCCCCCCCCCCCO`, the log K of transfer, gas to solvent in series [1] (Di-n-butyl ether) is 9.07 log10 K; in series [1] (Hexadecane) it was 8.14 log10 K; in series [1] (Water), 2.14 log10 K.
On to `O=C1CCCCCC1`, for which the figures for the log K of transfer, gas to solvent in series [1] (Hexadecane) and in series [1] (Water) were 4.37 log10 K and 3.42 log10 K, respectively.
For `C=CCCCCCCCC`, the results for the log K of transfer, gas to solvent in series [1] (Hexadecane) and in series [1] (Water) were 4.53 log10 K and -1.64 log10 K, respectively.
Consider `CCCCC(C)(C)O`, for which the results for the log K of transfer, gas to solvent in series [1] (Hexadecane) and in series [1] (Water) were 3.68 log10 K and 3.06 log10 K, respectively.
Consider `CC1CCCCN1` (centres unmarked), for which the figures for the log K of transfer, gas to solvent in series [1] (Hexadecane) and in series [1] (Water) were 3.23 log10 K and 3.15 log10 K, respectively.
As to `CC(C)F`, the log K of transfer, gas to solvent is 1.15 log10 K in series [1] (Hexadecane) and -0.364 log10 K in series [1] (Water).
Take `CCCCN(C=O)CCCC`: the log K of transfer, gas to solvent was 5.62 log10 K in series [1] (Hexadecane) and 4.34 log10 K in series [1] (Water).
Regarding `C1C2CC3CC1CC(C2)C3`, the log K of transfer, gas to solvent was 4.93 log10 K in series [1] (Hexadecane) and 0.12 log10 K in series [1] (Water).
Take `CCCC(C)CC` (centres unmarked): the figures for the log K of transfer, gas to solvent in series [1] (Hexadecane) and in series [1] (Water) were 3.04 log10 K and -1.99 log10 K, respectively.
With `C1CCSC1`, the log K of transfer, gas to solvent in series [1] (Hexadecane) was 3.06 log10 K; in series [1] (Water), 1.66 log10 K.
Consider `CCCCCCCCCCCO`, for which the results for the log K of transfer, gas to solvent in series [1] (Decan-1-ol), in series [1] (Hexadecane) and in series [1] (Water) were 7.53 log10 K, 6.12 log10 K and 2.5 log10 K, respectively.
As to `CCCCCCCCCCCCCO`, the log K of transfer, gas to solvent was 7.13 log10 K in series [1] (Hexadecane) and 2.38 log10 K in series [1] (Water).
Consider `C1CCCCCCC1`, for which the log K of transfer, gas to solvent in series [1] (Hexadecane) was 4.33 log10 K; in series [1] (Water) it was -0.63 log10 K.
`CCCCCCCCCCCCCCCCCO`: the log K of transfer, gas to solvent in series [1] (Hexadecane) was 9.16 log10 K; in series [1] (Water), 1.9 log10 K.
